Measured values reported in patent publication US20230000870A1, “METHODS OF TREATING CANCER IN BIOMARKER-IDENTIFIED PATIENTS WITH INHIBITORS OF CYCLIN-DEPENDENT KINASE 7 (CDK7)” (Syros Pharmaceuticals, Inc., priority 2019, published 2023).

Experiments:
HCC70 cells = test: Inhibition of proliferation of HCC70 cells (CyQUANT Direct, 72 hour); type: cell-based, human; conditions: read-out: Inhibition of Proliferation of HCC70 Cells (calculated IC50)
Outline: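 Anti-proliferative effect measured with the CyQUANT Direct kit after a 72 h exposure at 37 °C, 5% CO2. Compounds were tested at 0.5 log serial dilutions spanning 4–[…] on HCC70 triple-negative breast cancer cells cultured in RPMI-1640 with 10% FBS.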

CDK2/Cyclin E1 complex = CDK2/Cyclin E1 complex (Homo sapiens, UniProt P24941); test: CDK2 kinase inhibition assay (Caliper/LabChip EZ Reader); type: biochemical; conditions: CDK2/Cyclin E1 0.5 nM, ATP 2 mM, 35 min at 27° C.
Outline: (§1)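 Incubation times were set for ~20% (±5%) peptide phosphorylation by uninhibited enzyme: CDK7 35 min, CDK2 35 min (0.5 nM complex, 2 μM 5-FAM-CDK7tide, 2 mM MgCl2), CDK12 3 hr (50 nM, 2 μM 5-FAM-CDK9tide, 2 mM MgCl2), CDK9 15 min (8 nM, 2 μM 5-FAM-CDK9tide, 10 mM MgCl2). Read-out on LabChip EZ Reader, 27° C.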

A673 cells = test: Inhibition of proliferation of A673 cells (CyQUANT, 72 hour); type: cell-based, human; conditions: read-out: Inhibition of Proliferation of A673 Cells (calculated IC50)
Outline: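 Read-out is CyQUANT after a 72 h proliferation period, following the kit protocol. Dilution series in 0.5-log steps over the stated 4 μM to […] range. Cells are A673 (human Ewing's sarcoma), grown in DMEM with 10% FBS and 1 mM sodium pyruvate at 37 °C under 5% CO2.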

[1] = target: T1, CDK12 (aa686-1082)/Cyclin K complex (Homo sapiens, UniProt Q9NYV4); test: CDK12 kinase inhibition assay (Caliper/LabChip EZ Reader); type: biochemical; conditions: CDK12 (aa686-1082)/Cyclin K 50 nM, ATP 2 mM, 3 hr at 27° C.
T1 construct: CDK12 (aa686-1082)/Cyclin K complex
Outline: as §1

[2] = target: CDK7/Cyclin H/MAT1 complex (Homo sapiens, UniProt P50613); test: CDK7 kinase inhibition assay (Caliper/LabChip EZ Reader); type: biochemical; conditions: CDK7/Cyclin H/MAT1 6 nM, ATP 2 mM, 35 min at 27° C.
Outline: as §1

CDK9/Cyclin T1 complex = CDK9/Cyclin T1 complex (Homo sapiens, UniProt P50750); test: CDK9 kinase inhibition assay (Caliper/LabChip EZ Reader); type: biochemical; conditions: CDK9/Cyclin T1 8 nM, ATP 2 mM, 15 min at 27° C.
Outline: as §1

T1 sequence (Q9NYV4 686-1082): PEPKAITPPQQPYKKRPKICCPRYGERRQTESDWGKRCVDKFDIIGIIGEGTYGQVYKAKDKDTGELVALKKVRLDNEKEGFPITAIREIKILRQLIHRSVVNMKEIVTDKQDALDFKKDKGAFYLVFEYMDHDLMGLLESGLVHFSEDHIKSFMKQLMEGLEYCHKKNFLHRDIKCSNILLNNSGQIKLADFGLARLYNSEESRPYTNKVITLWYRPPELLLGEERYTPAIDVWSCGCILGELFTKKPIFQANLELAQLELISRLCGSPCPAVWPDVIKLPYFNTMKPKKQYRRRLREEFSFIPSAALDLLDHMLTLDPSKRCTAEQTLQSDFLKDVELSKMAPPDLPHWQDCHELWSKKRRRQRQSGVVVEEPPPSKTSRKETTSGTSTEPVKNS
T1 sequence (O75909 whole entry partner, the tested form may be a part): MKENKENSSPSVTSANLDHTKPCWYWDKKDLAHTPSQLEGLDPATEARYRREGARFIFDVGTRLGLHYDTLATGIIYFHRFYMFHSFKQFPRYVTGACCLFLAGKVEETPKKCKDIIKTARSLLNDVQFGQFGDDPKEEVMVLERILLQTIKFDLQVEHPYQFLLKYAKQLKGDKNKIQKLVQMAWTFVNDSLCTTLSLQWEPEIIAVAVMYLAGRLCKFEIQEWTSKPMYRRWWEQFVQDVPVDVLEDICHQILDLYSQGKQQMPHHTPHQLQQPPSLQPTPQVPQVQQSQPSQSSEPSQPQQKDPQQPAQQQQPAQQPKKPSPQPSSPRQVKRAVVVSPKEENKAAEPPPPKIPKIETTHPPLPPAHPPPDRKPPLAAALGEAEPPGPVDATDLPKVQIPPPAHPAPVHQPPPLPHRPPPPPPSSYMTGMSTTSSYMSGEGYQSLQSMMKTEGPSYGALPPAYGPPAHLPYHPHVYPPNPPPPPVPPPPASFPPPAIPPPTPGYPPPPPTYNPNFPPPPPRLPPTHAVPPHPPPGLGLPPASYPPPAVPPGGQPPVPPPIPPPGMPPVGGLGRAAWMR
Sequence of CDK9/Cyclin T1 complex (P50750 whole entry): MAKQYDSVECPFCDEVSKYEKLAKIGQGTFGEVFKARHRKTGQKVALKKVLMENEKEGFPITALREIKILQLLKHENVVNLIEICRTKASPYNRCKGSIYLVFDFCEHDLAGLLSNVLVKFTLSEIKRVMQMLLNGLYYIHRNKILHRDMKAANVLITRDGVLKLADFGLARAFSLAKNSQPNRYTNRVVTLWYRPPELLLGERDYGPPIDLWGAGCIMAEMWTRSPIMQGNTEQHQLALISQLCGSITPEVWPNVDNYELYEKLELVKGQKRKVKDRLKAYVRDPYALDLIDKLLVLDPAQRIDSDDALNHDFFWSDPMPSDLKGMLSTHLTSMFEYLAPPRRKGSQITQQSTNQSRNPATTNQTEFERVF
Sequence of CDK9/Cyclin T1 complex (O60563 whole entry partner): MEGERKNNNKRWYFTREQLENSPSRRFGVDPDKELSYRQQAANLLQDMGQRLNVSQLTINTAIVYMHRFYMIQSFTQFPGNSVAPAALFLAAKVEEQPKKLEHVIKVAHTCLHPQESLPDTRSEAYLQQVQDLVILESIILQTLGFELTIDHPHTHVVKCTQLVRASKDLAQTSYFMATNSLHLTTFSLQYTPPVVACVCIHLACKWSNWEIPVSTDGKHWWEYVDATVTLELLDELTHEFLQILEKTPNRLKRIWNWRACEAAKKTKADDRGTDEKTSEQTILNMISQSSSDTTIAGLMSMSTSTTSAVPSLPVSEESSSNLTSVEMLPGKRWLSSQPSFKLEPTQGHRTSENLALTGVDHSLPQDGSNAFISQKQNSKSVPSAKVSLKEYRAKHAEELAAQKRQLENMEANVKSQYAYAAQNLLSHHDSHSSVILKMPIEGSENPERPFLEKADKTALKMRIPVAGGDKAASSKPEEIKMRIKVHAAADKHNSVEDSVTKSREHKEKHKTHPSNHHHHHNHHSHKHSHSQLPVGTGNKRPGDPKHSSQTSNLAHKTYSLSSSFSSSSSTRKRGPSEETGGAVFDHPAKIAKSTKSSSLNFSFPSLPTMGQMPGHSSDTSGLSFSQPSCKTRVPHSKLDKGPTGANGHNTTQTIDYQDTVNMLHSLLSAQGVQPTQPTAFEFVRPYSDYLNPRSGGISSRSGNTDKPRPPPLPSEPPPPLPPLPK
Sequence of CDK7/Cyclin H/MAT1 complex (P50613 whole entry): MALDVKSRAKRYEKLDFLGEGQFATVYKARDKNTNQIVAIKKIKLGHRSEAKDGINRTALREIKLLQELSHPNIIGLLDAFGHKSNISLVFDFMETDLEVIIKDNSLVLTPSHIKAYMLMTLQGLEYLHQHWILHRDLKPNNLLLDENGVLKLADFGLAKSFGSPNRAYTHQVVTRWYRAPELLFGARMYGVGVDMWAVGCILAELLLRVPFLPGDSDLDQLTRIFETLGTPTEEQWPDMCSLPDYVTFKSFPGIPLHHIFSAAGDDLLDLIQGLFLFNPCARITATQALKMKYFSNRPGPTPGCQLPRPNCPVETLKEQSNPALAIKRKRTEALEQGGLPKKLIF
Sequence of CDK7/Cyclin H/MAT1 complex (P51946 whole entry partner): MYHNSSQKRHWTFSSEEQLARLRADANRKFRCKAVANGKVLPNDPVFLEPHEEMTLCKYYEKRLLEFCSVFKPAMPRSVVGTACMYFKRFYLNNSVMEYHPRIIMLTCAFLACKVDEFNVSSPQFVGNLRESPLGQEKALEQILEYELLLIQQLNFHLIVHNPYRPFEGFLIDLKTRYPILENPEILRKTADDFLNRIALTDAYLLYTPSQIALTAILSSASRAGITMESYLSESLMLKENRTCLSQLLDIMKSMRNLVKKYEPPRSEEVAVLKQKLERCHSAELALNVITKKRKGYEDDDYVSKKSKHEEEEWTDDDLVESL
Sequence of CDK7/Cyclin H/MAT1 complex (P51948 whole entry partner): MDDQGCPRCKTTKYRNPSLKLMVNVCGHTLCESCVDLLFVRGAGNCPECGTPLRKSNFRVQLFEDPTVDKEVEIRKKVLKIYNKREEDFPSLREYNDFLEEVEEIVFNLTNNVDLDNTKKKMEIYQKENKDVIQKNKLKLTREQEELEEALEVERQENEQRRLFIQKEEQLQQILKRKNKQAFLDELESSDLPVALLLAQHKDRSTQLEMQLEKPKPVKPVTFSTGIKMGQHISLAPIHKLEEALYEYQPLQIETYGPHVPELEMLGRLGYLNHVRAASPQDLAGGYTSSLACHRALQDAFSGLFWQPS

Row | SMILES | IC50 (HCC70 cells) [nM] | IC50 (CDK2/Cyclin E1 complex) [nM] | IC50 (A673 cells) [nM] | IC50 [1] [µM] | IC50 [2] [nM] | IC50 (CDK9/Cyclin T1 complex) [µM]
1 | CCc1cnc(NC2CCCNC2)nc1-c1c[nH]c2c(F)cccc12 (stereo not drawn) [Compound 144] | 100 to 1000 | 200 to 5000 | 20 to 200 | 0.2 to 5 | < 20 | 0.2 to 5
2 | O=C1CCC(Nc2ncc(Cl)c(-c3c[nH]c4ccccc34)n2)CN1 (stereo not drawn) [Compound 159] | 1000 to 5000 | 20 to 200 | 200 to 5000 | 0.2 to 5 | 20 to 200 | 0.2 to 5
3 | N#Cc1ccc2c(-c3nc(NC4CCCNC4)ncc3Cl)c[nH]c2c1 (stereo not drawn) [Compound 161] | < 100 | 200 to 5000 | < 20 | 0.2 to 5 | < 20 | 0.2 to 5
4 | FC(F)(F)c1cnc(NC2CCCNC2)nc1-c1c[nH]c2cnc(Cl)cc12 (stereo not drawn) [Compound 165] | 100 to 1000 | 200 to 5000 | 20 to 200 | 0.2 to 5 | < 20 | 0.2 to 5
5 | Fc1cnc2[nH]cc(-c3nc(NC4CCCNC4)ncc3C(F)(F)F)c2c1 (stereo not drawn) [Compound 166] | < 100 | 20 to 200 | < 20 | 0.2 to 5 | < 20 | 0.2 to 5
6 | FC(F)(F)c1cnc(NC2CCCNC2)nc1-c1c[nH]c2c(-c3cn[nH]c3)cccc12 (stereo not drawn) [Compound 170] | < 100 | 200 to 5000 | < 20 | 0.02 to 0.2 | < 20 | 0.2 to 5
7 | CNC(=O)c1cccc2c(-c3nc(N[C@H]4CCCNC4)ncc3C(F)(F)F)c[nH]c12 [Compound 173] | 100 to 1000 | 200 to 5000 | 20 to 200 | 0.2 to 5 | < 20 | 0.2 to 5
8 | Cc1[nH]ncc1-c1cccc2c(-c3nc(N[C@@H]4CCCNC4)ncc3C(F)(F)F)c[nH]c12 [Compound 175] | 1000 to 5000 | 200 to 5000 | < 20 | 0.2 to 5 | < 20 | 0.02 to 0.2
9 | CN1CCN(c2cccc3c(-c4nc(NC5CCCNC5)ncc4C(F)(F)F)c[nH]c23)C1=O (stereo not drawn) [Compound 176] | 100 to 1000 | 200 to 5000 | < 20 | 0.2 to 5 | < 20 | 0.2 to 5
10 | FC(F)(F)c1cnc(NC2CCCNC2)nc1-c1c[nH]c2c(-c3ccnnc3)cccc12 (stereo not drawn) [Compound 180] | < 100 | 20 to 200 | < 20 | 0.02 to 0.2 | < 20 | 0.2 to 5
11 | OC1CCC(c2cccc3c(-c4nc(NC5CCCNC5)ncc4C(F)(F)F)c[nH]c23)CC1 (stereo not drawn) [Compound 185] | < 100 | 20 to 200 | < 20 | 0.2 to 5 | < 20 | 0.2 to 5
12 | CC1(C)CCC(Nc2ncc(C(F)(F)F)c(-c3c[nH]c4ccccc34)n2)CN1 (stereo not drawn) [Compound 190] | 100 to 1000 | 200 to 5000 | < 20 | 0.2 to 5 | < 20 | 0.2 to 5
13 | CS(=O)(=O)c1ccc2c(-c3nc(NC4CCCNC4)ncc3C(F)(F)F)c[nH]c2c1 (stereo not drawn) [Compound 199] | 100 to 1000 | 200 to 5000 | < 20 | 0.2 to 5 | < 20 | 0.2 to 5
14 | CC1(O)CCN(C(=O)c2ccc3c(-c4nc(NC5CCCNC5)ncc4C(F)(F)F)c[nH]c3c2)C1 (stereo not drawn) [Compound 221] | 100 to 1000 | ≥ 5000 | 200 to 5000 | ≥ 5 | < 20 | ≥ 5
15 | CS(=O)(=O)c1c(C#N)ccc2c(-c3nc(N[C@H]4CCCNC4)ncc3C(F)(F)F)c[nH]c12 [Compound 232] | < 100 | 200 to 5000 | < 20 | 0.2 to 5 | < 20 | 0.2 to 5
16 | CCc1cnc(NC2CCCNC2)nc1-c1c[nH]c2cc(C#N)ccc12 (stereo not drawn) [Compound 246] | 100 to 1000 | ≥ 5000 | 200 to 5000 | ≥ 5 | < 20 | ≥ 5
17 | O=C(c1ccc2c(-c3nc(N[C@H]4CCCNC4)ncc3C(F)(F)F)c[nH]c2c1)N1CC[C@@H](O)C1 [Compound 250] | 1000 to 5000 | 200 to 5000 | 200 to 5000 | 0.2 to 5 | < 20 | ≥ 5
18 | N#Cc1ccc2c(-c3nc(NC4CCCNC4)ncc3C(F)(F)F)c[nH]c2n1 (stereo not drawn) [Compound 251] | < 100 | 200 to 5000 | < 20 | 0.2 to 5 | < 20 | 0.2 to 5
19 | N#Cc1ccc2c(-c3nc(N[C@@H]4CCCNC4)ncc3C(F)(F)F)c[nH]c2c1-c1ccnnc1 [Compound 261] | < 100 | 200 to 5000 | < 20 | 0.2 to 5 | 20 to 200 | 0.2 to 5
20 | CCc1cnc(NC2CCCNC2)nc1-c1c[nH]c2c(S(C)(=O)=O)c(C#N)ccc12 (stereo not drawn) [Compound 263] | 100 to 1000 | ≥ 5000 | 20 to 200 | ≥ 5 | < 20 | ≥ 5
21 | FC(F)(F)c1cnc(NC2CNCC(c3nnc4ccccn34)C2)nc1-c1c[nH]c2ccccc12 (stereo not drawn) [Compound 267] | < 100 | 200 to 5000 | < 20 | 0.2 to 5 | 20 to 200 | 0.2 to 5
22 | CCc1cnc(NC2CCCNC2)nc1-c1n[nH]c2nc(C#N)ccc12 (stereo not drawn) [Compound 277] | 100 to 1000 | 200 to 5000 | 20 to 200 | 0.2 to 5 | < 20 | 0.2 to 5
23 | O=C(c1ccc2c(-c3nc(NC4CCCNC4)ncc3C(F)(F)F)c[nH]c2c1)N1CCCC1 (stereo not drawn) [Compound 278] | 100 to 1000 | 200 to 5000 | 20 to 200 | 0.2 to 5 | 20 to 200 | ≥ 5
24 | Cn1cc(-c2nc(NC3CCCNC3)ncc2C(F)(F)F)c2cccc(C#N)c21 (stereo not drawn) [Compound 279] | 1000 to 5000 | ≥ 5000 | 200 to 5000 | ≥ 5 | 20 to 200 | ≥ 5
25 | COCn1cc(-c2nc(NC3CCCNC3)ncc2C(F)(F)F)c2ccc(C#N)nc21 (stereo not drawn) [Compound 283] | 1000 to 5000 | ≥ 5000 | 200 to 5000 | ≥ 5 | 200 to 5000 | ≥ 5
26 | CCN1CCCC(Nc2ncc(C(F)(F)F)c(-c3c[nH]c4cc(C#N)ccc34)n2)C1 (stereo not drawn) [Compound 284] | 100 to 1000 | 200 to 5000 | 20 to 200 | 0.2 to 5 | < 20 | 0.2 to 5
